For 5 compounds, Ki and Activity results are on record in ChEMBL document CHEMBL1154959, “The role of phosphate in the action of thymidine phosphorylase inhibitors: Implications for the catalytic mechanism” (Bioorg Med Chem Lett, 2010).

Active and inactive are the calls of the source. The calls are words filed in the database; no cut-off is given here.

One test deals with Thymidine phosphorylase (Escherichia coli K-12, UniProt P07650). Put plainly: Inhibition of Escherichia coli thymidine phosphorylase.
Sequence of Thymidine phosphorylase (P07650 whole entry): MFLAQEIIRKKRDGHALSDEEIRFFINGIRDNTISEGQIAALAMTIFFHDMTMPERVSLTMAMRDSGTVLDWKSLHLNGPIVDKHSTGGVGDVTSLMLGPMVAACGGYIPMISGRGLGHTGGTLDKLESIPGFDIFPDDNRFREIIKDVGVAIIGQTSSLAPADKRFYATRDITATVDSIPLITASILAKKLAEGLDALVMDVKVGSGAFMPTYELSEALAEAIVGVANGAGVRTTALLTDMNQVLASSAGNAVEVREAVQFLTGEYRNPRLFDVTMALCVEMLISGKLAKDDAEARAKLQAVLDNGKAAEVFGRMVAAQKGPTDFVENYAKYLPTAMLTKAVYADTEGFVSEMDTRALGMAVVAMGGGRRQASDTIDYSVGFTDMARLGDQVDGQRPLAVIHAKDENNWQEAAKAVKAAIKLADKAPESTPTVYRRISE
On to `N=C1CCCN1Cc1[nH]c(=O)[nH]c(=O)c1Cl`, for which the Ki was found to be 35 nM. That is a double-digit nanomolar value. Same read-out and setting: the figure for `Nc1nccn1Cc1[nH]c(=O)[nH]c(=O)c1F` is 11 nM; for `Nc1c(Br)c(=O)[nH]c(=O)n1CCCCCCCCP(=O)(O)O` it is 476000 nM. Still for that read-out and setting: the figure for `Cc1cn([C@@H]2O[C@H](CO)[C@H]3C[C@@H](CP(=O)(O)O)O[C@H]32)c(=O)[nH]c1=O` is 1000 nM; for `O=c1[nH]c(Cn2ccnc2)c(F)c(=O)[nH]1` it is 51 nM.

In the next test the target is Thymidine phosphorylase (Escherichia coli K-12) (UniProt P07650). Put plainly: Inhibition of Escherichia coli thymidine phosphorylase by spectrophotometry.
Sequence of Thymidine phosphorylase (Escherichia coli K-12) (P07650 whole entry, looked up): as the sequence (P07650 whole entry) above
On to `Nc1nccn1Cc1[nH]c(=O)[nH]c(=O)c1F`, for which the outcome was Active.

Broadly, the Ki is the dissociation constant of the complex between target and ligand, obtained from inhibition or displacement.
